According to the supplement of paper PMC10307832:

Key:
Assay in all cases: relative viability (nuclei count vs DMSO), 5 days (fraction); higher = more cells survive
NCI-H1648 = tested on: NCI-H1648
Procedure, shortened: (§1)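 Nuclei were stained with Hoechst during a one-step fixation (final 0.05% Triton X-100, 1% formaldehyde, 1 ug/ml Hoechst) carried out 5 days after dosing, then counted on 4× images. The cells, lung cancer lines in 1536-well plates, had been dosed by pin tool the day after seeding with one drug alone or a fixed anchor-drug dose plus five library-drug doses (not always all listed) in √10 steps. Relative viability is the nuclei count in treated wells divided by that in vehicle wells, and each value is the median of duplicate plates.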

LK-2 = tested on: LK-2
Procedure, shortened: as §1

NCI-H1734 = tested on: NCI-H1734
Procedure, shortened: as §1

A-427 = tested on: A-427
Procedure, shortened: as §1

CAL-12T = tested on: CAL-12T
Procedure, shortened: as §1

NCI-H2009 = tested on: NCI-H2009
Procedure, shortened: as §1

NCI-H1650 = tested on: NCI-H1650
Procedure, shortened: as §1

UMC-11 = tested on: UMC-11
Procedure, shortened: as §1

CC(=O)O[C@@]12CO[C@@H]1C[C@H](O)[C@@]1(C)C(=O)[C@H](O)C3=C(C)[C@@H](OC(=O)[C@H](O)[C@@H](NC(=O)OC(C)(C)C)c4ccccc4)C[C@@](O)([C@@H](OC(=O)c4ccccc4)[C@H]21)C3(C)C [Docetaxel] + CC(=O)Nc1cccc(-n2c(=O)n(C3CC3)c(=O)c3c(Nc4ccc(I)cc4F)n(C)c(=O)c(C)c32)c1 [Trametinib] (partner 0.02 µM)
relative viability (NCI-H1648; first compound 0.0002 µM): 0.435 | relative viability (NCI-H1648; first compound 0.000632 µM): 0.456 | relative viability (NCI-H1648; first compound 0.002 µM): 0.367 | relative viability (NCI-H1648; first compound 0.006325 µM): 0.288 | relative viability (NCI-H1648; first compound 0.02 µM): 0.193 | relative viability (LK-2; first compound 0.0002 µM): 0.683 | relative viability (LK-2; first compound 0.000632 µM): 0.528 | relative viability (LK-2; first compound 0.002 µM): 0.304 | relative viability (LK-2; first compound 0.006325 µM): 0.187 | relative viability (LK-2; first compound 0.02 µM): 0.136 | relative viability (NCI-H1734; first compound 0.0002 µM): 0.615 | relative viability (NCI-H1734; first compound 0.000632 µM): 0.54 | relative viability (NCI-H1734; first compound 0.002 µM): 0.351 | relative viability (NCI-H1734; first compound 0.006325 µM): 0.337 | relative viability (NCI-H1734; first compound 0.02 µM): 0.198 | relative viability (A-427; first compound 0.0002 µM): 0.765 | relative viability (A-427; first compound 0.000632 µM): 0.775 | relative viability (A-427; first compound 0.002 µM): 0.552 | relative viability (A-427; first compound 0.006325 µM): 0.388 | relative viability (A-427; first compound 0.02 µM): 0.216 | relative viability (CAL-12T; first compound 0.0002 µM): 0.294 | relative viability (CAL-12T; first compound 0.000632 µM): 0.267 | relative viability (CAL-12T; first compound 0.002 µM): 0.229 | relative viability (CAL-12T; first compound 0.006325 µM): 0.15 | relative viability (CAL-12T; first compound 0.02 µM): 0.119 | relative viability (NCI-H2009; first compound 0.0002 µM): 0.273 | relative viability (NCI-H2009; first compound 0.000632 µM): 0.312 | relative viability (NCI-H2009; first compound 0.002 µM): 0.295 | relative viability (NCI-H2009; first compound 0.006325 µM): 0.233 | relative viability (NCI-H2009; first compound 0.02 µM): 0.175 | relative viability (NCI-H1650; first compound 0.0002 µM): 0.392 | relative viability (NCI-H1650; first compound 0.000632 µM): 0.4 | relative viability (NCI-H1650; first compound 0.002 µM): 0.217 | relative viability (NCI-H1650; first compound 0.006325 µM): 0.107 | relative viability (UMC-11; first compound 0.0002 µM): 0.62 | relative viability (UMC-11; first compound 0.000632 µM): 0.788 | relative viability (UMC-11; first compound 0.002 µM): 0.358 | relative viability (UMC-11; first compound 0.006325 µM): 0.216 | relative viability (UMC-11; first compound 0.02 µM): 0.147

Nc1ccn([C@@H]2O[C@H](CO)[C@@H](O)[C@@H]2O)c(=O)n1 [Cytarabine] + CC(=O)Nc1cccc(-n2c(=O)n(C3CC3)c(=O)c3c(Nc4ccc(I)cc4F)n(C)c(=O)c(C)c32)c1 [Trametinib] (partner 0.02 µM)
relative viability (NCI-H1648; first compound 0.005 µM): 0.419 | relative viability (NCI-H1648; first compound 0.01581 µM): 0.4 | relative viability (NCI-H1648; first compound 0.05 µM): 0.44 | relative viability (NCI-H1648; first compound 0.1581 µM): 0.36 | relative viability (NCI-H1648; first compound 0.5 µM): 0.373 | relative viability (LK-2; first compound 0.005 µM): 1.01 | relative viability (LK-2; first compound 0.01581 µM): 0.701 | relative viability (LK-2; first compound 0.05 µM): 0.479 | relative viability (LK-2; first compound 0.1581 µM): 0.226 | relative viability (LK-2; first compound 0.5 µM): 0.268 | relative viability (NCI-H1734; first compound 0.005 µM): 0.361 | relative viability (NCI-H1734; first compound 0.01581 µM): 0.264 | relative viability (NCI-H1734; first compound 0.05 µM): 0.203 | relative viability (NCI-H1734; first compound 0.1581 µM): 0.132 | relative viability (NCI-H1734; first compound 0.5 µM): 0.119 | relative viability (A-427; first compound 0.005 µM): 0.714 | relative viability (A-427; first compound 0.01581 µM): 0.616 | relative viability (A-427; first compound 0.05 µM): 0.381 | relative viability (A-427; first compound 0.1581 µM): 0.273 | relative viability (A-427; first compound 0.5 µM): 0.225 | relative viability (CAL-12T; first compound 0.005 µM): 0.411 | relative viability (CAL-12T; first compound 0.01581 µM): 0.318 | relative viability (CAL-12T; first compound 0.05 µM): 0.326 | relative viability (CAL-12T; first compound 0.1581 µM): 0.22 | relative viability (CAL-12T; first compound 0.5 µM): 0.22 | relative viability (NCI-H2009; first compound 0.005 µM): 0.271 | relative viability (NCI-H2009; first compound 0.01581 µM): 0.25 | relative viability (NCI-H2009; first compound 0.05 µM): 0.249 | relative viability (NCI-H2009; first compound 0.1581 µM): 0.238 | relative viability (NCI-H2009; first compound 0.5 µM): 0.137 | relative viability (NCI-H1650; first compound 0.005 µM): 0.446 | relative viability (NCI-H1650; first compound 0.01581 µM): 0.419 | relative viability (NCI-H1650; first compound 0.05 µM): 0.452 | relative viability (NCI-H1650; first compound 0.1581 µM): 0.24 | relative viability (NCI-H1650; first compound 0.5 µM): 0.158 | relative viability (UMC-11; first compound 0.005 µM): 0.487 | relative viability (UMC-11; first compound 0.01581 µM): 0.424 | relative viability (UMC-11; first compound 0.05 µM): 0.373 | relative viability (UMC-11; first compound 0.1581 µM): 0.216 | relative viability (UMC-11; first compound 0.5 µM): 0.183

COc1cc2nccc(Oc3ccc(NC(=O)Nc4cc(C)on4)c(Cl)c3)c2cc1OC [Tivozanib] + Nc1nc2[nH]cc(CCc3ccc(C(=O)N[C@@H](CCC(=O)O)C(=O)O)cc3)c2c(=O)[nH]1 [Pemetrexed] (partner 0.2 µM)
relative viability (NCI-H1648; first compound 0.005 µM): 0.723 | relative viability (NCI-H1648; first compound 0.01581 µM): 0.704 | relative viability (NCI-H1648; first compound 0.05 µM): 0.778 | relative viability (NCI-H1648; first compound 0.1581 µM): 0.652 | relative viability (NCI-H1648; first compound 0.5 µM): 0.546 | relative viability (LK-2; first compound 0.005 µM): 0.254 | relative viability (LK-2; first compound 0.01581 µM): 0.258 | relative viability (LK-2; first compound 0.05 µM): 0.289 | relative viability (LK-2; first compound 0.1581 µM): 0.203 | relative viability (LK-2; first compound 0.5 µM): 0.197 | relative viability (NCI-H1734; first compound 0.005 µM): 0.426 | relative viability (NCI-H1734; first compound 0.01581 µM): 0.39 | relative viability (NCI-H1734; first compound 0.05 µM): 0.404 | relative viability (NCI-H1734; first compound 0.1581 µM): 0.402 | relative viability (NCI-H1734; first compound 0.5 µM): 0.404 | relative viability (A-427; first compound 0.005 µM): 0.973 | relative viability (A-427; first compound 0.01581 µM): 0.952 | relative viability (A-427; first compound 0.05 µM): 0.961 | relative viability (A-427; first compound 0.1581 µM): 0.926 | relative viability (A-427; first compound 0.5 µM): 0.979 | relative viability (CAL-12T; first compound 0.005 µM): 1.25 | relative viability (CAL-12T; first compound 0.01581 µM): 1.15 | relative viability (CAL-12T; first compound 0.05 µM): 1.13 | relative viability (CAL-12T; first compound 0.1581 µM): 1.13 | relative viability (CAL-12T; first compound 0.5 µM): 1.12 | relative viability (NCI-H2009; first compound 0.005 µM): 0.994 | relative viability (NCI-H2009; first compound 0.01581 µM): 1.04 | relative viability (NCI-H2009; first compound 0.05 µM): 0.995 | relative viability (NCI-H2009; first compound 0.1581 µM): 1.06 | relative viability (NCI-H2009; first compound 0.5 µM): 0.933 | relative viability (NCI-H1650; first compound 0.005 µM): 0.362 | relative viability (NCI-H1650; first compound 0.01581 µM): 0.342 | relative viability (NCI-H1650; first compound 0.05 µM): 0.384 | relative viability (NCI-H1650; first compound 0.1581 µM): 0.309 | relative viability (NCI-H1650; first compound 0.5 µM): 0.354 | relative viability (UMC-11; first compound 0.005 µM): 0.807 | relative viability (UMC-11; first compound 0.01581 µM): 0.698 | relative viability (UMC-11; first compound 0.05 µM): 0.718 | relative viability (UMC-11; first compound 0.1581 µM): 0.619 | relative viability (UMC-11; first compound 0.5 µM): 0.755
